# Literature values as cited in patent US7402581B2, “Azetidine compounds” (Albireo AB, priority 2003, dated 2008).
# Biological target: T1, Human Neurokinin-2 (NK2) Receptor (Homo sapiens, UniProt P21452)
# T1 sequence (P21452 1-398): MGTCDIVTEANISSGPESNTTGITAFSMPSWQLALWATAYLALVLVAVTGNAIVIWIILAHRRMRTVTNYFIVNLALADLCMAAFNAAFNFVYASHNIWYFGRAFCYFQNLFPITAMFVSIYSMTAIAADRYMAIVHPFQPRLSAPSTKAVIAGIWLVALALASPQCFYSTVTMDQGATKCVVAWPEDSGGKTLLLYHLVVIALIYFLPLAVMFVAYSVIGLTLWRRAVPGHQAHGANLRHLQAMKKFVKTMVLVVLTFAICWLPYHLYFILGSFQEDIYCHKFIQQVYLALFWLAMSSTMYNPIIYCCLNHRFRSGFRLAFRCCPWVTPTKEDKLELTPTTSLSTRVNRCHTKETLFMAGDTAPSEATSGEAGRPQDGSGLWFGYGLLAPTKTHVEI
# Settings: reported in Bioorganic & Medicinal Chemistry Letters 2003
smiles,measurement,value
"CN(CC(CCN1CC(N2CCOCC2)C1)c1ccc(Cl)c(Cl)c1)C(=O)c1ccccc1 (stereo not shown) [N-[2-(3,4-dichlorophenyl)-4-(3-morpholin-4-ylazetidin-1-yl)butyl]-N-methylbenzamide]",functional NK2 receptor antagonistic properties,functional NK2 receptor antagonistic properties
